The values that follow are results of earlier work, collected in patent US20130183383A1, “PHARMACEUTICAL COMPOSITIONS FOR CALANOLIDES, THEIR DERIVATIVES AND ANALOGUES, AND PROCESS FOR PRODUCING THE SAME” (Craun Research SDN BHD, priority 2010, published 2013).

The conditions of this data set: soft gelatin capsules containing 100 mg (+)-calanolide A in oil-based / sesame oil-based vehicle.

For the compound `CCCc1cc(=O)oc2c3c(c4c(c12)OC(C)(C)C=C4)O[C@H](C)[C@@H](C)[C@@H]3O` [calanolide A, (+)-Calanolide A], the Bioavailability entry is recorded as “poor bioavailability”.
